According to ChEMBL document CHEMBL2203030, “Synthesis, characterization, antidepressant and antioxidant activity of novel piperamides bearing piperidine and piperazine analogues” (Bioorg Med Chem Lett, 2012):
Values after ≈ are worked out from the molar mass of the structure shown.

Assays:
Escherichia coli [1] = assay: Antimicrobial activity against Escherichia coli NCIM 2574 by broth dilution method; format: functional
Bacillus subtilis [2] = assay: Antimicrobial activity against Bacillus subtilis NCIM 2999 by broth dilution method; format: functional
Staphylococcus aureus [3] = assay: Antimicrobial activity against Staphylococcus aureus NCIM 5021 at 10 ug/disc incubated for 24 hrs by agar disc diffusion method; format: functional; conditions: NCIM 5021, 24 h, read-out: IZ
Staphylococcus aureus [4] = assay: Antimicrobial activity against Staphylococcus aureus NCIM 5021 by broth dilution method; format: functional
Pseudomonas aeruginosa [5] = assay: Antimicrobial activity against Pseudomonas aeruginosa NCIM 5029 at 10 ug/disc incubated for 24 hrs by agar disc diffusion method; format: functional; conditions: NCIM 5029, 24 h, read-out: IZ
Pseudomonas aeruginosa [6] = assay: Antimicrobial activity against Pseudomonas aeruginosa NCIM 5029 by broth dilution method; format: functional
Escherichia coli [7] = assay: Antimicrobial activity against Escherichia coli NCIM 2574 at 10 ug/disc incubated for 24 hrs by agar disc diffusion method; format: functional; conditions: NCIM 2574, 24 h, read-out: IZ
Bacillus subtilis [8] = assay: Antimicrobial activity against Bacillus subtilis NCIM 2999 at 10 ug/disc incubated for 24 hrs by agar disc diffusion method; format: functional; conditions: NCIM 2999, 24 h, read-out: IZ
Aspergillus flavus [9] = assay: Antimicrobial activity against Aspergillus flavus NCIM 524 at 100 ug/mL incubated for 48 hrs by agar disc diffusion method; format: functional; conditions: NCIM 524, 48 h, read-out: IZ
Mus musculus [10] = assay: Antidepressant activity in Swiss albino mouse assessed as mean immobility time measured during last 4 mins of single 6 mins test session at 20 mg/kg, po by forced swim test (reference value: 75.33 +/- 3.35 secs); format: functional
Pseudomonas aeruginosa [11] = assay: Antimicrobial activity against Pseudomonas aeruginosa NCIM 5029 at 100 ug/mL incubated for 24 hrs by agar disc diffusion method; format: functional; conditions: NCIM 5029, 24 h, read-out: IZ
[12] = test system: Radical scavenging activity; assay: Antioxidant activity assessed as DPPH free radical scavenging activity by spectrophotometry; format: functional
Aspergillus flavus [13] = assay: Antimicrobial activity against Aspergillus flavus NCIM 524 by broth dilution method; format: functional
[14] = Antioxidant activity assessed as superoxide scavenging activity using xanthine-xanthine oxidase system by NBT dye reduction based assay; format: functional
Candida albicans [15] = assay: Antimicrobial activity against Candida albicans NCIM 3471 at 100 ug/mL incubated for 48 hrs by agar disc diffusion method; format: functional; conditions: NCIM 3471, 48 h, read-out: IZ
Mus musculus [16] = assay: Antidepressant activity in Swiss albino mouse assessed as mean immobility time measured during 6 mins period at 20 mg/kg, po administered 30 mins before test by tail suspension test (reference value: 185.7 +/- 5.33 secs); format: functional
Candida albicans [17] = assay: Antimicrobial activity against Candida albicans NCIM 3471 by broth dilution method; format: functional
Escherichia coli [18] = assay: Antimicrobial activity against Escherichia coli NCIM 2574 at 100 ug/mL incubated for 24 hrs by agar disc diffusion method; format: functional; conditions: NCIM 2574, 24 h, read-out: IZ
Bacillus subtilis [19] = assay: Antimicrobial activity against Bacillus subtilis NCIM 2999 at 100 ug/mL incubated for 24 hrs by agar disc diffusion method; format: functional; conditions: NCIM 2999, 24 h, read-out: IZ
Staphylococcus aureus [20] = assay: Antimicrobial activity against Staphylococcus aureus NCIM 5021 at 100 ug/mL incubated for 24 hrs by agar disc diffusion method; format: functional; conditions: NCIM 5021, 24 h, read-out: IZ
[21] = biological target: T1, Amine oxidase [flavin-containing] A (Mus musculus, UniProt Q64133); assay: Inhibition of MAOA in mouse brain mitochondrial fraction assessed as enzyme activity per mg of protein using 5-HT substrate incubated for 20 mins by UV-spectrophotometry; format: tissue-based
T1 sequence (Q64133 whole entry): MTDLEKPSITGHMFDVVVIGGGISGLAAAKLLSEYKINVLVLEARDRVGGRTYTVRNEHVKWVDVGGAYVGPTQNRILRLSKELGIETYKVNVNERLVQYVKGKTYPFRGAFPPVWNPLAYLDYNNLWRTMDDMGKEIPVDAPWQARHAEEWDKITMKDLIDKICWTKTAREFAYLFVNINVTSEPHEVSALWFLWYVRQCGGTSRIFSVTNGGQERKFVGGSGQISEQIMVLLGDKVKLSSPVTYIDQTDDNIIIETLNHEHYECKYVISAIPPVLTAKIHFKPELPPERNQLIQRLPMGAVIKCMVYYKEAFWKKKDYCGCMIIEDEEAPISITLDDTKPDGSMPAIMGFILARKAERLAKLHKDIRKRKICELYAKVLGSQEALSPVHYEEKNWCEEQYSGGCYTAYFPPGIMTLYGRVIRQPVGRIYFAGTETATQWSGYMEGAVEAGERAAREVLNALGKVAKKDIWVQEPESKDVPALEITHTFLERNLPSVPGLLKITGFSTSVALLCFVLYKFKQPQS

[22] = biological target: T2, Amine oxidase [flavin-containing] B (Mus musculus, UniProt Q8BW75); assay: Inhibition of MAOB in mouse brain mitochondrial fraction assessed as enzyme activity per mg of protein using beta-PEA substrate incubated for 20 mins by UV-spectrophotometry; format: tissue-based
T2 sequence (Q8BW75 whole entry): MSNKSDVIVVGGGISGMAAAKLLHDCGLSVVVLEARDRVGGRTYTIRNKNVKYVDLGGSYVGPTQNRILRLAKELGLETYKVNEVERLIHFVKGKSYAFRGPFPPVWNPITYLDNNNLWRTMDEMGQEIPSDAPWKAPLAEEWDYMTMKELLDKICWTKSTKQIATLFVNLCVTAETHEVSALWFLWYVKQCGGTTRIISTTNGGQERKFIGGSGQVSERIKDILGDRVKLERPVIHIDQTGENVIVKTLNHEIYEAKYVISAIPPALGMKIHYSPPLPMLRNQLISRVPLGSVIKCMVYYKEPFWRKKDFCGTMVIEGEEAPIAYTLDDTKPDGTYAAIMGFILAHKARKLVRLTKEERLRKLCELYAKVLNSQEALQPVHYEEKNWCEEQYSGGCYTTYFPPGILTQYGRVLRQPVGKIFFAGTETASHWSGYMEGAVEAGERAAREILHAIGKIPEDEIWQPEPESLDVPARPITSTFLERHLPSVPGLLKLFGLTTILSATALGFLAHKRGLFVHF

Structure (SMILES) | MIC (Escherichia coli [1]) | MIC (Bacillus subtilis [2]) | MIC (Staphylococcus aureus [4]) | MIC (Pseudomonas aeruginosa [6]) | IC50 [12] | MIC (Aspergillus flavus [13]) | IC50 [14] | MIC (Candida albicans [17]) | zone of inhibition at 100 µg/mL (Aspergillus flavus [9]) | Time (Mus musculus [10]) | zone of inhibition at 100 µg/mL (Pseudomonas aeruginosa [11]) | zone of inhibition at 100 µg/mL (Candida albicans [15]) | Time (Mus musculus [16]) | zone of inhibition at 100 µg/mL (Escherichia coli [18]) | zone of inhibition at 100 µg/mL (Bacillus subtilis [19]) | zone of inhibition at 100 µg/mL (Staphylococcus aureus [20]) | also measured
COc1cc(/C=C/C(=O)N2C(C)CCCC2C)cc2c1OCO2 (configuration not stated) | 50 µg/mL (≈ 158 µM) | 30 µg/mL (≈ 94.5 µM) | 28 µg/mL (≈ 88.2 µM) | 30 µg/mL (≈ 94.5 µM) | 13.8 µg/mL (≈ 43.5 µM) | 25 µg/mL (≈ 78.8 µM) | 15.8 µg/mL (≈ 49.8 µM) | 25 µg/mL (≈ 78.8 µM) | 15 mm | 43.33 s | 11 mm | 12 mm | 77.33 s | 10 mm | 12 mm | 11 mm | 
C#CCN(C)CCCOc1ccc(Cl)cc1Cl [CLORGILINE] |  |  |  |  |  |  |  |  |  |  |  |  |  |  |  |  | Activity [21]: 17.05 nmol; Activity [22]: 18.16 nmol
COc1ccccc1N1CCN(C(=O)/C=C/c2cc(OC)c3c(c2)OCO3)CC1 | 20 µg/mL (≈ 50.4 µM) | 15 µg/mL (≈ 37.8 µM) | 16.4 µg/mL (≈ 41.4 µM) | 20 µg/mL (≈ 50.4 µM) | 14.7 µg/mL (≈ 37.1 µM) | 23 µg/mL (≈ 58 µM) | 19.4 µg/mL (≈ 48.9 µM) | 17 µg/mL (≈ 42.9 µM) | 13.6 mm | 59.16 s | 11 mm | 14.1 mm | 124.2 s | 9 mm | 16 mm | 14 mm | 

The next lines start with results.

MIC (Escherichia coli [1]) | MIC (Bacillus subtilis [2]) | MIC (Staphylococcus aureus [4]) | MIC (Pseudomonas aeruginosa [6]) | IC50 [12] | MIC (Aspergillus flavus [13]) | IC50 [14] | MIC (Candida albicans [17]) | Structure (SMILES) | zone of inhibition at 100 µg/mL (Aspergillus flavus [9]) | Time (Mus musculus [10]) | zone of inhibition at 100 µg/mL (Pseudomonas aeruginosa [11]) | zone of inhibition at 100 µg/mL (Candida albicans [15]) | Time (Mus musculus [16]) | zone of inhibition at 100 µg/mL (Escherichia coli [18]) | zone of inhibition at 100 µg/mL (Bacillus subtilis [19]) | zone of inhibition at 100 µg/mL (Staphylococcus aureus [20]) | also measured
5 µg/mL (≈ 8.6 µM) | 5 µg/mL (≈ 8.6 µM) | 5 µg/mL (≈ 8.6 µM) | 5 µg/mL (≈ 8.6 µM) |  |  |  |  | CN[C@@H]1[C@H](O[C@H]2[C@H](O[C@H]3[C@H](O)[C@@H](O)[C@H](N=C(N)N)[C@@H](O)[C@@H]3N=C(N)N)O[C@@H](C)[C@]2(O)C=O)O[C@@H](CO)[C@H](O)[C@H]1O [STREPTOMYCIN] |  |  |  |  |  |  |  |  | zone of inhibition at 10 µg/disc (Staphylococcus aureus [3]): 11.6 mm; zone of inhibition at 10 µg/disc (Pseudomonas aeruginosa [5]): 14 mm; zone of inhibition at 10 µg/disc (Escherichia coli [7]): 14.5 mm; zone of inhibition at 10 µg/disc (Bacillus subtilis [8]): 10.4 mm
22 µg/mL (≈ 59.9 µM) | 15.5 µg/mL (≈ 42.2 µM) | 15.2 µg/mL (≈ 41.4 µM) | 20 µg/mL (≈ 54.4 µM) | 19.3 µg/mL (≈ 52.5 µM) | 15 µg/mL (≈ 40.8 µM) | 18.5 µg/mL (≈ 50.4 µM) | 14 µg/mL (≈ 38.1 µM) | COc1cc(/C=C/C(=O)N2CCN(c3ccccn3)CC2)cc2c1OCO2 | 10.9 mm | 67.6 s | 17 mm | 11.4 mm | 148.5 s | 11 mm | 12 mm | 14 mm | 
> 100 µg/mL | 50 µg/mL (≈ 164 µM) | 50 µg/mL (≈ 164 µM) | > 100 µg/mL | 8.3 µg/mL (≈ 27.2 µM) | 90 µg/mL (≈ 295 µM) | 12.8 µg/mL (≈ 41.9 µM) | 100 µg/mL (≈ 328 µM) | COc1cc(/C=C/C(=O)N2CCC(O)CC2)cc2c1OCO2 | 10.2 mm | 30.8 s | 11 mm | 14 mm | 76.18 s | 11 mm | 7 mm | 10 mm | Activity [21]: 14.46 nmol; Activity [22]: 15.72 nmol
25 µg/mL (≈ 68.2 µM) | 18 µg/mL (≈ 49.1 µM) | 18.3 µg/mL (≈ 49.9 µM) | 25 µg/mL (≈ 68.2 µM) | 36.9 µg/mL (≈ 101 µM) | 40 µg/mL (≈ 109 µM) | 55.3 µg/mL (≈ 151 µM) | 25 µg/mL (≈ 68.2 µM) | COc1cc(/C=C/C(=O)N2CCN(c3ccccc3)CC2)cc2c1OCO2 | 11 mm | 66.2 s | 13 mm | 13.7 mm | 143.5 s | 10 mm | 14 mm | 12 mm | 
